# Source: publication PMC11509018, “Evaluation of the Role of Tanshinone I in an In Vitro System of Charcot-Marie-Tooth Disease Type 2N” (International Journal of Molecular Sciences, 2024)
# Positions count from the first letter of the chain named.
# Legend:
# AlaRS^E337K = target: T1, AlaRS^E337K (Homo sapiens, UniProt P49588, E337K); assay: Proteolytic digestion assay (trypsin, SDS-PAGE); settings: three hours
# T1 construct: made in house; host or cells: E. coli BL21 (DE3), pET-21a
# T1 sequence (P49588 1-968 E337K): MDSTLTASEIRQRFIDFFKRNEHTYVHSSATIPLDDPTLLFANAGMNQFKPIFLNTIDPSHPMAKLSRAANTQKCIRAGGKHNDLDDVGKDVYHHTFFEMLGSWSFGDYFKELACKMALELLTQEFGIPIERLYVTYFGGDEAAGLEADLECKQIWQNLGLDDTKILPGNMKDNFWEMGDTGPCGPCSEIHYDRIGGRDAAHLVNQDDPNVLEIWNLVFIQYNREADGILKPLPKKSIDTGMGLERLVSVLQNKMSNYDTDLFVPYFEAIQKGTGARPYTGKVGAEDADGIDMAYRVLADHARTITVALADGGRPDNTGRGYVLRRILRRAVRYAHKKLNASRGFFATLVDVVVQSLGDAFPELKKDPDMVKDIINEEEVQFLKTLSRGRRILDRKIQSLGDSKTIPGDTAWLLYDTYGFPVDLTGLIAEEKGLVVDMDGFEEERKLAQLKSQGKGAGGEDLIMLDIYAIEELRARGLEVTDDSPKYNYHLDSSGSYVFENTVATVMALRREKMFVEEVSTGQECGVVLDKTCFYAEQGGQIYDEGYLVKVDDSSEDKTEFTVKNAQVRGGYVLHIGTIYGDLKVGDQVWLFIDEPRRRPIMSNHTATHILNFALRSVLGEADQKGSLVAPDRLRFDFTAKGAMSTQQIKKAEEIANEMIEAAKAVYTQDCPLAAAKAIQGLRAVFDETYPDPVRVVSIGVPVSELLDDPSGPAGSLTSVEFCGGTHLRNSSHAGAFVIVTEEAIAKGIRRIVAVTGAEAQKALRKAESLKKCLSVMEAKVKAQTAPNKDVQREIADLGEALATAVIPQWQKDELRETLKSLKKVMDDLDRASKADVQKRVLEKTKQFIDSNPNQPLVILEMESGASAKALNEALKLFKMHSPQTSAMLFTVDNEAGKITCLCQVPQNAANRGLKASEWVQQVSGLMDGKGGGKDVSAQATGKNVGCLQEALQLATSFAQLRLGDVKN
# From the text: (§1) Furthermore, we examined the interaction of Tanshinone I with additional AlaRS CMT mutants capable of binding to Nrp1 and causing conformational changes by BLI and proteolysis assays on additional related mutants.
# (§2) Figure 5 BLI and proteolytic digestion assay of AlaRS mutants with Tanshinone I. Binding sensorgrams for the interaction of Tanshinone I with immobilized AlaRS^R329H (A), AlaRS^G102R (C), AlaRS^R326W (E), and AlaRS^E337K (G). Each sensorgram contains five curves generated from five different concentrations. The KD values are presented as the mean ± SD and experiments were performed in triplicate. The AlaRS^N71Y (B), AlaRS^G102R (D), AlaRS^R326W (F), and AlaRS^E337K (H) proteins (in the presence and absence of Tanshinone I) were incubated with trypsin at different concentrations for three hours before the reactions were quenched, and the products were separated by SDS-PAGE.
# AlaRS^G102R = target: T2, AlaRS^G102R (Homo sapiens, UniProt P49588, G102R); assay: Proteolytic digestion assay (trypsin, SDS-PAGE); settings: three hours
# T2 construct: made in house; host or cells: E. coli BL21 (DE3), pET-21a
# T2 sequence (P49588 1-968 G102R): T1 sequence (P49588 1-968 E337K) with G102R, K337E
# From the text: as §1, §2
smiles,measurement,setting,value
Cc1coc2c1C(=O)C(=O)c1c-2ccc2c(C)cccc12 [Tanshinone I],Effect on proteolytic fragments / conformation,AlaRS^E337K,altered band patterns after Tanshinone I treatment
same,Effect on proteolytic fragments / conformation,AlaRS^G102R,more prominent bands at 1/100 after Tanshinone I treatment
